Earlier results as cited in patent US11019825B2, “Product” (priority 2015, dated 2021).

Experiments:
canola seedlings = conditions: low concentrations

Harzianic acid
antibiotic activity in vitro (Pythium irregulare): antibiotic activity | antibiotic activity in vitro (Sclerotinia sclerotiorum): antibiotic activity | plant growth promotion effect (canola seedlings): plant growth promotion effect | antibiotic activity in vitro (Rhizoctonia solani): antibiotic activity
